Laboratory results taken from patent US4000269A, “S-(α-substituted-arylmethylthio, -arylmethylsulfinyl, and -arylmethylsulfonyl)methyl phosphorus esters used as insecticides” (priority 1975, dated 1976).

Legend:
Format in all cases: in vivo
[1] = test system: Southern corn rootworm larvae (Diabrotica undecimpunctata); assay: Southern Corn Rootworm Control (treated soil, dust on talc); conditions: 144 h, potting soil, mortality after 6 days, read-out: Percent Control of Southern Corn Rootworm Larvae; for mortality at 1120.85 g/ha: 1 lbs./Acre; for mortality at 11208.5 g/ha: 10 lbs./Acre; for mortality at 56042.5 g/ha: 50 lbs./Acre
Procedure: Compounds are prepared as dusts on talc. The compounds are dissolved in acetone, and appropriate rates obtained by serial dilution. One and one-quarter milliliters of solution is pipetted onto a standard volume of dust in 1 -ounce jars, and the acetone allowed to evaporate. Twenty-five milliliters of moist soil and about 200 millet seeds are placed in the jar, capped and the contents thoroughly mixed. Ten second-instar larvae of the Southern corn rootworm (Diabrotica undecimpunctata ) are then placed in each jar. Mortality counts are made after 6 days and percent mortality determined.

[2] = test system: Tarnished Plant Bug (Lygus lineolaris); assay: A. Tarnished Plant Bug leaf-dip test; conditions: 48 h, 100 ppm., 2 days, read-out: Percent Mortality, Tarnished plant Bug
Procedure: (§1) Test compounds are prepared as 1000 ppm. solutions in 10 % acetone, 0.2 % Alrodyne 315 , and 89.8 % water. A tenfold dilution is made with 65 % acetone and 35 % water. The primary leaves of Sieva lima bean plants are dipped for 3 to 5 seconds in the test solutions and placed in an exhaust hood to dry. When dry, each leaf is placed in a 4 -inch petri dish with a moist filter paper on the bottom. Ten adult Lygus bugs are aspirated from the stock culture and placed in the petri dish. The dishes are covered and held at 80° F. and 50 % R.H. After 2 days, mortality counts are made.

Bean Aphid (Aphis fabae) = assay: C. Bean Aphid spray test; conditions: 48 h, 2 days, read-out: Percent Mortality, Bean Aphid
Procedure: Compounds are tested at 100 , 10 and 1 ppm. in solution or suspension in 65 % acetone/35 % water. Two-inch fiber pots each containing a nasturtium plant 2 inches high and infested with about 150 aphids 2 days earlier, are placed on a turntable (4 RPM) and sprayed for two revolutions with a No. 154 DeVilbiss Atomizer at 20 psi. air pressure. The spray tip is held about 6 inches from the plants, and the spray is directed so as to give complete coverage of the aphids and the plants. The sprayed plants are laid on their sides on white enamel trays. Mortality estimates are made after holding for 2 days at 70° F. and 50% R.H.

[3] = test system: Southern Armyworm (Prodenia eridania); assay: D. Southern Armyworm leaf-dip test; conditions: Spodoptera eridania, 48 h, 2 days, read-out: Percent Mortality, Southern Armyworm
Procedure: Compounds are tested at 1000 and 100 ppm. in solution or suspension in 65 % acetone/35 % water. Sieva lima bean primary leaves are dipped for 3 seconds in the test solution and set in a hood on a screen to dry. When dry, each leaf is placed in a 4 -inch petri dish which has a moist filter paper in the bottom and ten third-instar armyworm larvae about 3/8 inch long. The dishes are covered and held at 80° F., and 60 % R.H. After 2 days, mortality counts and estimates of the amount of feeding are made. Compounds showing partial kill and/or inhibition of feeding are held an extra day for further observations.

[4] = test system: Two-spotted Spider Mite (Tetranychus urticae); assay: E. Two-spotted Spider Mite plant-dip test; conditions: 48 h, read-out: Percent Mortality, Two-spotted Spider Mite; for mortality at 100 ppm: 2 days
Procedure: Sieva lima bean plants with primary leaves 3 to 4 inches long are infested with about 100 adult mites per leaf 4 hours before use in this test. The mite and egg infested plants are dipped for 3 seconds in the same solutions used in the aphid test, and the plants set in the hood to dry. They are held for 2 days at 80° F., 60% R.H., and the adult mite mortality estimated on one leaf under a steroscopic microscope. The other leaf is left on the plant an additional 5 days and then examined at 10 X power to estimate the kill of eggs and of newly hatched nymphs, giving a measure of ovicidal and residual action, respectively.

[5] = test system: Western Potato Leafhopper (Empoasca abrupta); assay: G. Western Potato Leafhopper plant-dip test; conditions: 48 h, 2 days, read-out: Percent Mortality, Western Potato Leafhopper
Procedure: Sieva lima bean plants with the primary leaf expanded to 3 to 4 inches are dipped into 100 or 10 ppm. 50 % acetone/50 % water solutions and set in the hood to dry. A 1 -inch piece of the tip of a treated leaf is cut off and placed in a 4 -inch petri dish with a moist filter paper in the bottom. From 3 to 10 second-instar nymphs are tapped from the culture plants into the test dish and rapidly covered. Mortality counts are made after 2 days at 80° F., and 50 % R.H.

[6] = test system: Malaria Mosquito (Anopheles quadrimaculatus); assay: H. Malaria Mosquito Adult Test; conditions: 24 h, adults, 1 day, read-out: Percent Mortality, Malaria Mosquito
Procedure: Solutions of 65% acetone/35% water containing 10 ppm. of test compound are poured into wide-mouth 2-ounce jars, each containing a microscope slide. The slides are removed from the test solution with forceps and laid horizontally to dry on a wide-mouth 4-ounce bottle. When dry, they are placed in the same 4-ounce bottle and 10 4- to 5-day-old mosquitoes of mixed sexes are added to each bottle. A piece of cotton gauze held on by an elastic band serves as a lid, and wad of cotton soaked in 10% honey solution serves as food. Mortality counts are made after 1 day at 80° F., 50% R.H. (relative humidity) Data obtained with the above procedures are reported in Table II below.

[7] = test system: Boll Weevil (Anthonomus grandis); assay: B. Boll Weevil leaf-dip test; conditions: 48 h, 100 ppm., 2 days, read-out: Percent Mortality, Boll Weevil
Procedure: as §1, with “The first or second true leaf” for “The primary leaves”, “of young cotton” for “of Sieva lima bean”, “plants is” for “plants are”, “test solution” for “test solutions”, “adult boll weevils” for “adult Lygus bugs”, “are removed” for “are aspirated”

[8] = test system: Mexican Bean Beetle (Epilachna varivestis); assay: F. Mexican Bean Beetle leaf-dip test; conditions: 48 h, 2 days, read-out: Percent Mortality, Mexican Bean Beetle
Procedure: Compounds to be tested are made up as 100 or 10 ppm. solutions in 65 % acetone/35 % water. Sieva lima bean leaves are dipped in the test solution and set in the hood to dry. When dry, they are placed in 4 -inch petri dishes which have a moist filter paper in the bottom, and 10 third-instar bean beetles are added to each dish. The dishes are covered and held at 80° F., 60 % R.H. After 2 days, mortality counts and estimates of the amount of feeding are made. Compounds showing kills greater than 75 % are further tested at tenfold dilutions in 65 % acetone/35 % water.

| Structure (SMILES) | mortality at 1120.85 g/ha [1] | mortality at 11208.5 g/ha [1] | mortality at 56042.5 g/ha [1] | mortality at 100 ppm [2] | mortality at 1 ppm (Bean Aphid (Aphis fabae)) | mortality at 10 ppm (Bean Aphid (Aphis fabae)) | mortality at 100 ppm (Bean Aphid (Aphis fabae)) | mortality at 100 ppm [3] | mortality at 1000 ppm [3] | mortality at 300 ppm [4] | mortality at 100 ppm [5] | mortality at 10 ppm [6] | mortality at 100 ppm [7] | mortality at 100 ppm [4] | mortality at 10 ppm [8] | mortality at 100 ppm [8] | mortality at 10 ppm [5] |
| --- | --- | --- | --- | --- | --- | --- | --- | --- | --- | --- | --- | --- | --- | --- | --- | --- | --- |
| CCOP(=S)(OCC)SCSC(C)(C)c1cccc(C)c1 [Example 14, S-(m,α,α-Trimethylbenzylthio)methyl O,O-Diethyl Phosphorodithioate] | 100% | 100% | 100% |  |  |  |  |  |  |  |  |  |  |  |  |  |  |
| CCOP(=S)(OCC)SCSC(C)(C)c1cccc(C)c1 [drawing 17] |  |  |  | 0% | 0% | 100% | 100% | 20% | 100% | 0% | 0% | 0% |  |  |  |  |  |
| COP(=S)(OC)SCSC(C)(C)c1ccccc1 [drawing 13] |  |  |  | 90% | 80% | 100% | 100% | 100% | 100% | 100% | 100% |  | 100% | 100% | 80% | 80% | 100% |
| COP(=S)(OC)SCSC(C)(C)c1cc(Cl)ccc1Cl [drawing 10] |  |  |  | 60% | 50% | 100% | 100% | 100% | 100% | 100% | 100% | 70% | 90% | 100% |  |  | 40% |
| CCOP(=S)(OCC)SCSC(C)(CC)c1ccccc1 (stereo not drawn) [Example 21, S-(α-Ethyl-α-methylbenzylthio)methyl O,O-Diethyl Phosphorodithioate] | 0% | 100% | 100% |  |  |  |  |  |  |  |  |  |  |  |  |  |  |
| COP(=S)(OC)SCSC(C)(C)c1ccc(C#N)cc1 [Example 24, S-(p-Cyano-α,α-dimethylbenzylthio)methyl O,O-Dimethyl Phosphorodithioate] | 0% | 100% | 100% |  |  |  |  |  |  |  |  |  |  |  |  |  |  |
| CCOP(=S)(OCC)SC[S+]([O-])C(C)(C)c1ccccc1 (centres unmarked) [drawing 8] |  |  |  | 0% | 100% | 100% | 100% | 80% | 100% | 100% | 100% |  | 100% | 100% | 40% | 100% | 100% |
